Laboratory results: patent publication US20030232040A1, “Biocidal methods and compositions” (SureCide Technologies, LLC, priority 2000, published 2003)
Entries after “also recorded” stand apart in the source; their conditions may differ.

Test system: Escherichia coli (ATCC strain #25404)
Test: High-throughput 96-well liquid outgrowth system for the measurement of bacterial cell killing
Assay type: cell-based
Conditions: for antimicrobial effectiveness: 1 mM FeCl2 10 min; for log kill / antimicrobial effect of the stress inducer after iron pre-incubation: 10 min 1 mM FeCl2 in iso-osmotic saline (130 mM NaCl, pH 5.0), then 10 min a range of concentrations of the stress inducer; for kill by the stress inducer alone: no FeCl2 pre-treatment, 10 min a range of concentrations of the stress inducer, iso-osmotic saline
From the text: Classical methods for determining antimicrobial effects involve exposure of cells to disinfectant or antiseptic agents contained in tubes or vials, removal of the agents by centrifugation, washing of the cells to remove disinfectant residues, plating of the cells at a number of dilutions onto culture plates, and enumeration of the resulting colonies. Such methods are inadequate for the purposes of the present invention for two principle reasons, namely, treatment of cells in tubes is too lengthy for the determination of rapid effects (e.g., on the order of 1-5 minutes), and treatment and plating are too laborious for the accurate determination of many different interactions in parallel. […] In these experiments, the assays were prepared as follows, and quadruplicate wells were treated in parallel. A high-throughput 96-well liquid outgrowth system was devised for the measurement of bacterial cell killing. Known numbers of living cells were treated, and unknown numbers of surviving cells were quantified by measuring the rate of liquid outgrowth of the culture relative to a standard curve, as determined by optical density. Cells of Escherichia coli (ATCC strain #25404) were grown to mid-log cell density (absorbance of about 0.1 at 600 nm) in 100 mL of Luria Broth (LB) at 37° C. in Erlenmeyer flasks, and then chilled at 0° C. on ice prior to use. “Treatment” plates were prepared as follows. Chilled cells were aliquoted (approximately 50 μL) into wells of a 96-well filtration plate (Multiscreen® (Millipore Corporation, Bedford, Mass.), having a 0.22 μm hydrophilic Durapore® membrane at the bottom of the wells). The LB medium was removed by vacuum filtration, and the remaining cells were washed with 150 μL of an iso-osmotic solution, either sterile saline solution (SSS, 130 mM NaCl, pH 5.0) or sterile HEPES-buffered saline (HBS, 0.595% HEPES, 0.82% NaCl, pH 7.05). The cells on the treatment plate were then exposed to various free iron (for example, FeCl2) and optional stress inducer treatments as described in the examples delineated below. The FeCl2 solutions were always prepared fresh on the day of use from the anhydrous salt. The cells in a set number of wells were not treated; these untreated cells were serially diluted and used to construct a standard curve. “Reading” plates were made from the treatment plate by adding approximately 130 μL of sterile LB medium to each well of three sterile polycarbonate microtiter plates (Corning). […] of the resuspended cells from all wells of the treatment plate were then transferred to a corresponding well on the reading plates, which were then sealed (for example, using polypropylene sealing mats) and incubated at 37° C. with vigorous shaking. Absorbance readings of turbidity (measured at λ=600 nm) were recorded at approximately 45minute intervals over a time course ranging from about two to about seven hours. Cell densities of the wells containing the treated cells were calculated by comparison to the standard curve. Absorbance readings were performed at 600 nm using a standard microtiter plate absorbance reader (Multiskan® microplate reader by Labsystems, Helsinki, FI). The measurements collected for the treated cells were disregarded unless they fell within a region of linear growth in liquid culture, which was individually determined for each time point reading. Generally, acceptable measurements ranged from about 0.020 to about 0.200 OD units. […] Techniques for calculating slopes and determining concentrations from standard curves are known to one skilled in the art, FeCl2 solutions were prepared from the anhydrous salt, and peroxide (H2O2) dilutions are prepared fresh from a 30% w/w stock solution. Cells were plated as described above, then treated with FeCl2 at concentrations ranging from about 1 μM to about 1.024 mM (in HBS). Cells were exposed to the FeCl2 solution for approximately 10 minutes at room temperature (i.e., iron “pre-treatment”).

Compound | log kill / antimicrobial effect of the stress inducer after iron pre-incubation | kill by the stress inducer alone | also measured
[Cl][Fe][Cl] [FeCl2] | – | – | antimicrobial effectiveness (then NaCl near the iso-osmotic point (130 mM) (FIG. 4)): minimally effective; antimicrobial effectiveness (then hypo-osmotic (0 mM NaCl) or hyper-osmotic (600 mM) conditions (FIG. 4)): maximally effective; cell killing (10 min 1 mM FeCl2 in iso-osmotic saline, then 10 min in a range of osmolarities of sodium chloride (FIG. 4)): resulted in killing at all osmolarities; FeCl2 pre-treatment concentration that increases the sensitivity of cells to subsequent H2O2 (10 min FeCl2 in HBS, then 10 min H2O2 about 73 μM to about 1 mM (FIG. 2B)): ≥ 16 µM; cell killing (decrease in cell viability) (FeCl2 alone, about 1 μM to about 1.024 mM in iso-osmotic HBS, 10 min room temperature, no hydrogen peroxide (FIG. 2A)): did not result in appreciable cell killing at any concentration; also recorded: relatively small antimicrobial effect; reduction of microbial population (FeCl2 pre-treatment 10 min in HBS, then H2O2 10 min at concentrations as low as 73 μM (FIG. 2A)): reduced the microbial populations significantly
O=P([O-])([O-])[O-].[Na+].[Na+].[Na+] [TSP, trisodium phosphate] | enhanced by pre-incubation of the cells with free iron | – | –
O=C(O)CC(O)(CC(=O)O)C(=O)O [citric acid] | potentiated by pre-incubation with iron | – | –
OCl [hypochlorite] | highly effective | none of the concentrations of bleach used resulted in any kill alone | –
lysozyme | highly effective | none of the concentrations of lysozyme used resulted in any kill alone | –
